Here are results for 3 compounds from US10759994B2, “Luminogenic transition metal-based pyridyl complex and its use” (City University of Hong Kong, priority 2016, dated 2020).

One series has as its system HeLa cells. The format is cell-based. As to conditions: complex 40 μM; for Percentage of survival: 37° C., 6 h; for Cell viability with BCN-C10 pretreatment: BCN-C10 pretreatment (200 μM, 1 h). From the text:
The results particularly highlight the potential of the luminogenic transition metal-based polypyridyl complexes of the present invention for bioorthogonal labeling. […] Importantly, although the cellular uptake of complex 2b was substantially higher, it was much less cytotoxic than complex 4b toward the pretreated cells. […] The results also highlight the potential therapeutic use of intracellular bioorthogonal coupling reactions in activating the cytotoxicity of metallo drugs.
For determining the cytotoxicity of complexes 1 b 5b, HeLa cells were seeded in a 96-well flat-bottomed microplate (about 10,000 cells well^−1) in growth medium (100 μL) and incubated at 37° C. under a 5% CO2 atmosphere for 24 h. The cells were then incubated in either blank medium or growth medium/DMSO (99:1, v/v) (100 μL) containing BCN-C10 (200 μM) in the dark at 37° C. under a 5% CO2 atmosphere for 1 h. The medium was then removed, the cell layer was washed with PBS, and further incubated in growth medium/DMSO (99:1, v/v) (100 μL) containing the ruthenium(II) complexes (40 μM) in the dark at 37° C. under a 5% CO2 atmosphere for 6, 12, or 24 h. Wells containing untreated cells were used as blank control. The microplate was incubated at 37° C. under a 5% CO2 atmosphere for another 4 h. The growth medium was then removed, and DMSO (200 μL) was added to each well. The microplate was further incubated for 15 min. The absorbance of the solutions at 570 nm was measured with a SPECTRAmax 340 microplate reader.

Series [1] in a line: Photophysical data (emission wavelength, lifetime, quantum yield). The class given is physicochemical. The method, then: Electronic absorption spectra were recorded on an Agilent 8453 diode array spectrophotometer. Steady-state emission spectra were recorded on a HORIBA JOBIN YVON Fluorolog TCSPC spectrofluorometer. Unless specified otherwise, all solutions for photophysical studies were degassed with no fewer than four successive freeze-pump-thaw cycles and stored in a 10-cm^3 round bottomed flask equipped with a side-arm 1-cm fluorescence cuvette and sealed from the atmosphere by a Rotaflo HP6/6 quick-release Teflon stopper. Luminescence quantum yields were measured by the optically dilute method (Demas, J. N. and Crosby, G. A., J. Phys. Chem. 1971, 75, 991) using an aerated aqueous solution of [Ru(bpy)3]Cl2 (ϕem=0.028, λex=455 nm) as the standard solution (Wallace, L. and Rillema, D. P., Inorg. Chem., 1993, 32, 3836). The concentrations of the standard and sample solutions were adjusted until the absorbance at 455 nm was 0.1. The emission lifetimes were measured on a HORIBA JOBIN YVON Fluorolog TCSPC spectrofluorometer in the Fast MCS lifetime mode with a NanoLED N-375 as the excitation source.
The very low emission quantum yield of complexes 1a-5b compared with other related iridium(III) and ruthenium(II) systems are expected to be due to quenching by the nitrone moiety.
In particular, the emission quantum yields of the iridium(III) complexes 1a, 2a and 3a (ϕem<0.021; Table 1) were much lower than those of common cyclometalated iridium(Ill) polypyridyl complexes (Li, S. P.-Y. et al., Chem. Eur. J. 2010, 16, 8329; Li, S. P.-Y. et al., Biomaterials 2013, 34, 7519; Lo, K. K.-W. et al., Chem. Commun. 2013, 49, 4271) which is expected to be a consequence of efficient quenching associated with isomerization of the C═N group.

The nature of series [2]: Emission enhancement upon reaction with BCN—OH. The class given is physicochemical. As to conditions: complex 10 μM, BCN—OH 1 mM, aerated MeOH, 298 K. The source says:
The strained alkyne BCN—OH has been selected as a model substrate. […] Namely, these findings confirm that complexes 1a-5b remained non-emissive or weakly emissive as long as the nitrone moiety is intact and resume their strongly emissive behavior upon cycloaddition reaction with strained alkynes.

Another series addresses T1, unmodified BSA (Bos taurus, UniProt P02769).
T1 construct: purchased Calbiochem
The series is described as follows: Emission enhancement with unmodified BSA (negative control). The format is biochemical, Bovine. Conditions: complex 10 μM, protein 3.78 μM, aerated potassium phosphate buffer (50 mM, pH 7.4)/DMSO (99:1, v/v), 298 K.

Setting [3] is: Potassium phosphate buffer (50 mM, pH 7.4)/DMSO (9:1, v/v), 298 K.
Setting [4] is: Potassium phosphate buffer (50 mM, pH 7.4)/MeOH (4:1, v/v), 298 K.

T1 sequence (P02769 25-607): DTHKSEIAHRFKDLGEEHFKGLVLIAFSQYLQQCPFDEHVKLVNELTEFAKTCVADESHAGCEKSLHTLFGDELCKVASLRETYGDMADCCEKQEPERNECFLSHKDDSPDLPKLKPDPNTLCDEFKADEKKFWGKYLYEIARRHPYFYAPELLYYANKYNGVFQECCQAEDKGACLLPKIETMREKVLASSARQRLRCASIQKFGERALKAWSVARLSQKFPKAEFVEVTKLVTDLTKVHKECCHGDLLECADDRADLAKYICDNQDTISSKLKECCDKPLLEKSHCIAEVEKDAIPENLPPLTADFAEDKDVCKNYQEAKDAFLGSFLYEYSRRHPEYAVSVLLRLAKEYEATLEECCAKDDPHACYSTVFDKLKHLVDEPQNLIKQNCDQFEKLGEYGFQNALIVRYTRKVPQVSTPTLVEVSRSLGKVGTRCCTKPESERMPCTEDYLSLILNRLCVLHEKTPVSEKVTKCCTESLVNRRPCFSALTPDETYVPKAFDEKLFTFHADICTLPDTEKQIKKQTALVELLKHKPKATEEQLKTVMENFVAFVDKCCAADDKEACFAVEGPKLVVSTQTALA

In the series with HeLa cells, `Cc1ccnc(-c2cc(/C=[N+](/C)[O-])ccn2)c1.F[P-](F)(F)(F)(F)F.F[P-](F)(F)(F)(F)F.[Ru+2].c1ccc(-c2ccccn2)nc1.c1ccc(-c2ccccn2)nc1` [Complex 1b] had a Percentage of survival of 91.37 ± 5.73%. In series [1] (CH2Cl2, 298 K), this compound displayed a Φem of 0.006 and a τo of 1.20 μs. For the same compound, in series [1] (MeOH, 298 K), the Φem stood at 0.006, the λem was 609 nm and the τo was 0.94 μs. For the same compound, in series [1] (setting [3]), the Φem came out at 0.004, the λem came to 611 nm and the τo amounted to 0.64 μs. Moreover, the “Emission enhancement factors (I/Io)” value in series [2] was determined as 9.5. For the same compound, at unmodified BSA, the “I/Io BSA” value was found to be 1.1.

For `CCCCNC(=O)c1ccnc(-c2cc(C(=O)NCCCC)ccn2)c1.CCCCNC(=O)c1ccnc(-c2cc(C(=O)NCCCC)ccn2)c1.Cc1ccnc(-c2cc(/C=[N+](/C)[O-])ccn2)c1.F[P-](F)(F)(F)(F)F.F[P-](F)(F)(F)(F)F.[Ru+2]` [Complex 2b], in the series with HeLa cells, the “Cell viability with BCN-C10 pretreatment” value is given as “maintained good biocompatibility” and the Percentage of survival was determined as 94.83 ± 16.20%. Moreover, in series [1] (CH2Cl2, 298 K), the Φem is on record as 0.013 and the τo was 1.68 μs. In series [1] (MeOH, 298 K), the Φem is recorded as 0.006, the λem came out at 647 nm and the τo was found to be 0.98 μs. In series [1] (setting [3]), this compound registered a Φem of 0.003, a λem of 650 nm and a τo of 0.52 μs. Further, the “Emission enhancement factors (I/Io)” value in series [2] amounted to 7.1. Besides, the “I/Io BSA” value at unmodified BSA turned out to be 1.1.

Regarding `Cc1ccnc(-c2cc(/C=[N+](\[O-])c3ccccc3)ccn2)c1.F[P-](F)(F)(F)(F)F.F[P-](F)(F)(F)(F)F.[Ru+2].c1ccc(-c2ccccn2)nc1.c1ccc(-c2ccccn2)nc1` [Complex 5b], in the series with HeLa cells, the “Cell viability with BCN-C10 pretreatment” value is “maintained good biocompatibility” and the Percentage of survival stood at 92.78 ± 8.54%. Further, in series [1] (MeOH, 298 K), the Φem came to 0.015, the λem is listed as 608 nm and the τo turned out to be 0.63 μs. Further, in series [1] (setting [4]), the Φem was 0.006, the λem is reported as 610 nm and the τo came out at 0.69 μs. For the same compound, the “Emission enhancement factors (I/Io)” value in series [2] is on record as 3.9. Further, the “I/Io BSA” value at unmodified BSA is on record as 1.1.
